Test results reported in the CATMoS acute toxicity set (Mansouri et al. 2021).
Values joined by “and” are separate entries in the source; they are usually repeats but may differ in a detail not shown here. Equal entries are not always repeated.

Test: rat acute oral toxicity
Conditions: in vivo
Source text: […]The data set underlying the modeling effort for this project was initially compiled by NICEATM and U.S. EPA’s CCTE. Briefly, LD50 data were collected from rat acute oral systemic toxicity tests, including limit tests, ranges/confidence intervals, and discrete LD50 values. The full data set included 21,200 LD50 entries for 15,688 substances. […] Data were reviewed to ensure that LD50 values with obvious errors in the extracted data such as unit conversion errors (e.g., comma and decimal separator misplacements) were either fixed or removed. After this review, 16,209 LD50 values remained. Many of the chemicals represented had multiple LD50 entries, requiring that a single representative value per Chemical Abstracts Service Registry Number (CASRN) identifier be defined to facilitate modeling efforts. Based on ATWG feedback and to define the representative LD50 as a protective value while accounting for the distribution across multiple LD50s, the median of the lowest quartile was computed using only discrete LD50 values (omitting limit test data and range and confidence interval data). A detailed summary of the data compilation is available online on the NICEATM webpage dedicated to the collaborative modeling project (NTP 2020).
[…][…] For categorical designations, limit test and range/confidence interval LD50 data were integrated wherever possible. As such, the number of chemicals with end point values/calls varies across the modeling end points (Table 3) based on whether chemicals had representative LD50 values and/or other data. If a chemical had both, the representative value was used to determine categorical calls rather than limit test data. Some data were useable only for certain end points and categories depending on the thresholds. For example, ranges that spanned multiple hazard categories were considered only for the binary (very toxic/nontoxic) end points and omitted from rendering a determination for hazard category assignment.
[…]The final data set comprising 11,992 chemicals was split into training and evaluation sets […], respectively. This process was performed semirandomly by ordering chemicals based on the five end points (categorical and continuous LD50 values) and partitioning every fourth record into the evaluation set accordingly. This approach was taken to ensure an equivalent distribution of the LD50 values and the different hazard categories between the training and the evaluation sets without supervised sampling of the chemicals based on structures (Figure 1A). The sources of the chemical structures were also kept equivalent between the two sets, with chemical structures obtained from DSSTox, being the highest quality, representing over 75% of each set (Figure 1B).

| SMILES | LD50 |
| --- | --- |
| CCC(C)n1c(=O)[nH]c(C)c(Br)c1=O (stereo unspecified) | 641 mg/kg |
| O=C1OC(=O)C2C1C1(Cl)C(Cl)=C(Cl)C2(Cl)C1(Cl)Cl (stereo unspecified) | 2130 mg/kg |
| CCCC(C)C1(CC)C(=O)N=C(O)NC1=O (stereo unspecified) | 52 mg/kg and 118 mg/kg |
| C[C@H]1OC(=O)[C@@H](C)OC1=O | 3540 mg/kg |
| NC1CCCCC1 | 11 mg/kg |
| CSc1nnc(C(C)(C)C)c(=O)n1N | 322 mg/kg |
| O=Cc1ccco1 | 100 mg/kg |
| CCOP(=S)(OCC)Oc1ccc(Cl)cc1Cl | 172 mg/kg |
| CCCCCCC(=O)O | 7000 mg/kg |
| CC(C)(C)NCCOCCO | 1400 mg/kg |
| O=[N+]([O-])c1ccc(O)c([N+](=O)[O-])c1 | 30 mg/kg |
| O=C(O)c1cccnc1 | 4500 mg/kg |
| CC(=O)CC(=O)Nc1ccccc1Cl | 4040 mg/kg |
| O=C1OC(=O)c2cccc3cccc1c23 | 9600 mg/kg |
| CCCCCCCCOC(=O)c1cc(O)c(O)c(O)c1 | 1960 mg/kg |
| CCCOCCO | 3090 mg/kg |
| N=C(Nc1ccccc1)Nc1ccccc1 | 107 mg/kg |
| Nc1ccccc1[N+](=O)[O-] | 1600 mg/kg |
| N#Cc1nn(-c2c(Cl)cc(C(F)(F)F)cc2Cl)c(N)c1S(=O)C(F)(F)F (stereo unspecified) | 92 mg/kg |
| CN(C)CCCCCCN(C)C | 238 mg/kg |
| CC(C)(O)C#N | 18.6 mg/kg |
| CN(C)C | 460 mg/kg |

| SMILES | LD50 |
| --- | --- |
| C=CCCC | 4600 mg/kg |
| Cc1ccc(N)cc1C | 810 mg/kg |
| NC(=O)CF | 5.75 mg/kg |
| CCOC(=O)C(Cl)C(C)=O (stereo unspecified) | 233 mg/kg |
| Clc1cccc(Cl)c1N=C1NCCN1 | 67.3 mg/kg |
| CCOP(=S)(OCC)Oc1ccc([N+](=O)[O-])cc1 | 2.1 mg/kg |
| CN(C)S(=O)(=O)Cl | 1220 mg/kg |
| CCCC(O)C(CC)CO (stereo unspecified) | 1400 mg/kg |
| CCCCOCCOCCOCc1cc2c(cc1CCC)OCO2 | 4570 mg/kg |
| OC[P+](CO)(CO)CO | 161 mg/kg |
| ClC(Cl)(Cl)c1ccccc1 | 1590 mg/kg |
| COP(=S)(OC)Oc1nc(Cl)c(Cl)cc1Cl | 1500 mg/kg |
| Clc1ccc(C(c2ccc(Cl)cc2)C(Cl)(Cl)Cl)cc1 | 87 mg/kg |
| CCCC1COC(Cn2cncn2)(c2ccc(Cl)cc2Cl)O1 (stereo unspecified) | 1500 mg/kg |
| CC1(C)[C@H](/C=C2\CCSC2=O)[C@@H]1C(=O)OCc1coc(Cc2ccccc2)c1 | 650 mg/kg |
| CC(=O)C(Cl)C(=O)N(C)C (stereo unspecified) | 275 mg/kg |
| CC(C)CCCCCOC(=O)c1ccccc1C(=O)OCCCCCC(C)C | 22000 mg/kg |
| CN(C)c1ccc(N)cc1 | 50 mg/kg |
| CCOP(=O)(O)C(N)=O | 2080 mg/kg |
| C[Si]1(CCC(F)(F)F)O[Si](C)(CCC(F)(F)F)O[Si](C)(CCC(F)(F)F)O1 (stereo unspecified) | 180 mg/kg |
| Cc1ccccc1OP(=O)(Oc1ccccc1C)Oc1ccccc1C | 1160 mg/kg |
| N#CCC(=O)O | 1010 mg/kg |

| SMILES | LD50 |
| --- | --- |
| CCNc1nc(Cl)nc(NC(C)(C)C)n1 | 1500 mg/kg |
| O=C(O)c1ccccc1C(=O)Nc1cccc2ccccc12 | 1770 mg/kg |
| CC(C)N | 111 mg/kg |
| COC(=O)Nc1ccc(Cl)c(Cl)c1 | 522 mg/kg |
| Clc1cc2c(c(Cl)c1Cl)Oc1cc(Cl)c(Cl)c(Cl)c1O2 | 0.8 mg/kg |
| CC=C1CC2C=CC1C2 (stereo unspecified) | 2280 mg/kg |
| CCCC=O | 2490 mg/kg |
| C=Cc1ccccc1 | 1000 mg/kg |
| CC(CCl)OP(=O)(OC(C)CCl)OC(C)CCl (stereo unspecified) | 980 mg/kg |
| CC(C)CCCCCCCCCCOP(OCCCCCCCCCCC(C)C)OCCCCCCCCCCC(C)C | 12000 mg/kg |
| CCC(C)NC1CCC(CC2CCC(NC(C)CC)CC2)CC1 (stereo unspecified) | 266 mg/kg |
| Nc1ccncc1 | 14 mg/kg |
| CC(=O)OC(C)(C)C | 4100 mg/kg |
| O=C(O)C(F)(OC(F)(F)C(F)(F)C(F)(F)F)C(F)(F)F (stereo unspecified) | 1750 mg/kg |
| CCN(C)C | 594 mg/kg |
| CC(C)NC(C)C | 310 mg/kg |
| OCCOCCOCCOCCO | 32700 mg/kg |
| CC1(C)CC(NCCCCCCNC2CC(C)(C)NC(C)(C)C2)CC(C)(C)N1 | 820 mg/kg |
| COc1ccccc1O | 520 mg/kg |
| CCNc1nc(NC(C)C)nc(SC)n1 | 1060 mg/kg |
| CCN(CC)c1c([N+](=O)[O-])cc(C(F)(F)F)c(N)c1[N+](=O)[O-] | 3000 mg/kg |
| Clc1cc2c(cc1Cl)Oc1cc(Cl)c(Cl)cc1O2 | 0.02 mg/kg |
